Key:
PEDF = assay: Gene expression analysis of endometrial implants (TaqMan), PEDF; assay type: in vivo, rat; details: for Expression level PEDF: endometrial implants, corrected by GAPDH, n 6, E2 control 4.51 ± 1.39
Protocol: (§1) Total RNA was extracted […] the rat-derived endometrial graft (27 specimens), then quality of the RNA was inspected with a spectrophotometer and bio-analyzer, and then reverse transcription reaction of the RNA was performed, followed by gene expression analysis was performed according to TaqMan method.
(§2) RNA was extracted from the rat uterine horn strips and grafted uterine strip using the RNeasy Fibrous Tissue Mini Kit.
(§3) Concentration of the extracted RNA was measured with a NanaoDrop. Also RIN measurements using a bioanalyzer (6000 nano kits) was carried out. A 6000 pico-kit was used for bioanalyzing of the two samples with low yield (Sample ID: 202, 507).
(§4) cDNA obtained by reverse transcription reaction from 1000 ng/uL of commercially available Rat Tissue Universal Reference Total RNA (Catalog Number PR-UR-100, ZYAGEN Inc.) using SuperScript VILO Master Mix (hereinafter “Standard”) was used as a standard substance.
(§5) Based on the concentration measured with a spectrophotometer, reverse transcription reaction of the specimen with Super Script VILO Master Mix was performed to give 50 ng/uL of cDNA (the following example). […]
(§6) TaqMan reaction by using Step One Plus Real-Time PCR System was performed with standard 250, 62.5, 15.625, 3.9, 0.98 ng/well or sample 5.0 ng/well. A cycle of reaction, two minutes at 50° C. and 10 minutes at 95° C., followed by 15 seconds at 95° C. and one minute at 60° C., was repeated 40 cycles, then the fluorescence value FAM was measured in real time after the reaction at 60° C. In addition to the target eight genes, GAPDH gene as an internal control gene was measured. All the standards and samples were measured in triplicate.
(§7) From each of the two calibration curves (target gene, GAPDH gene) obtained from the standard, gene expressions level of the target gene and GAPDH gene of the sample was calculated, respectively. […] And then, an average gene expression level of the samples in each group was calculated, followed by the average gene expression level of the two groups was used as a standard to compare with each of the other groups.

MCP-1 = assay: Gene expression analysis of endometrial implants (TaqMan), MCP-1; assay type: in vivo, rat; details: corrected by GAPDH, n 6, E2 control 29.47 ± 20.81
Protocol: as §1, §2, §3, §4, §5, §6, §7

Erb = assay: Gene expression analysis of endometrial implants (TaqMan), Erb; assay type: in vivo, rat; details: for Expression level Erb: endometrial implants, corrected by GAPDH, n 6, E2 control 2.37 ± 1.07
Protocol: as §1, §2, §3, §4
(§8) Based on the concentration measured with a spectrophotometer, reverse transcription reaction of the specimen with Super Script VILO Master Mix was performed to give 50 ng/uL of cDNA (the following example). As for the samples with low yield, that is Sample ID: 202, 502, 507, the reverse transcription reaction was performed to give 25 ng/uL, 25 ng/uL, and 12.5 ng/uL of cDNA, respectively.
as §6
(§9) From each of the two calibration curves (target gene, GAPDH gene) obtained from the standard, gene expressions level of the target gene and GAPDH gene of the sample was calculated, respectively. Then, the target gene expression level was corrected by the GAPDH gene expression level, the internal control gene. And then, an average gene expression level of the samples in each group was calculated, followed by the average gene expression level of the two groups was used as a standard to compare with each of the other groups.

IL-6 = assay: Gene expression analysis of endometrial implants (TaqMan), IL-6; assay type: in vivo, rat; details: for Expression level IL-6: endometrial implants, corrected by GAPDH, n 6, E2 control 14.24 ± 8.74
Protocol: as §1, §2, §3, §4, §5, §6, §7

PR = assay: Gene expression analysis of endometrial implants (TaqMan), PR; assay type: in vivo, rat; details: for Expression level PR: endometrial implants, corrected by GAPDH, n 6, E2 control 101.0 ± 40.3
Protocol: as §1, §2, §3, §4, §8, §6, §9

VEGF = assay: Gene expression analysis of endometrial implants (TaqMan), VEGF; assay type: in vivo, rat; details: for Expression level VEGF: endometrial implants, corrected by GAPDH, n 6, E2 control 1.62 ± 0.43
Protocol: as §1, §2, §3, §4, §8, §6, §9

rat endometriosis model = assay: Wet weight of each organ (pituitary, adrenal glands, left uterine horn, femur) in the rat endometriosis model; assay type: in vivo; details: for Wet weight of pituitary: vehicle 0.0271 g; for Wet weight of adrenal gland (right): vehicle 0.0425 g; for Wet weight of adrenal gland (left): vehicle 0.0468 g; for Wet weight of adrenal glands (the sum of the left and right): vehicle 0.0893 g; for Wet weight of left uterine horn: vehicle 0.1428 g; for Wet weight of femur (left): vehicle 0.7589 g
Protocol: On the previous day of the model preparation (the grouping date), under inhalation anesthesia of 2% isoflurane, an incision was made in the abdomen of the rats. Subsequently, about 5 mL of blood was collected with a syringe from the abdominal vena cava and collected in a Venoject II vacuum blood collection tube (EDTA-2K), then cut the abdominal vena cava and abdominal aorta to euthanize by exsanguination. The right uterine horn was excised and cut out two strips (approximately 5 mm×5 mm), then cut out strips (approximately 5 mm×5 mm) from the graft sites, the right and left abdominal walls (muscle layer and peritoneum). After that, wet weight of each strip and abdominal wall was measured. Then pituitary, adrenal glands (both sides), left uterine horn, mammary gland (excised with the nipples, three on the lower abdomen, a sample for RNA measurement was approximately 3 mm in diameter) and femur (left side) were excised.
As for the pituitary, adrenal glands (both sides), left uterine horn and femur, wet weight was measured. The femur bone after wet weight measurement was discarded.
The administration was made orally, and the drug was forcibly administered into a stomach once a day using a flexible oral sonde and syringe for 28 consecutive days.
On the next day of the final administration, the abdominal dissection was made under inhalation anesthesia of 2% isoflurane, and the grafted uterine strips (two pieces) were excised, and photographed with a digital camera. Subsequently, about 5 mL of blood was collected with a syringe from the abdominal vena cava and collected in a Venoject II vacuum blood collection tube (EDTA-2K), then cut the abdominal vena cava and abdominal aorta to euthanize by exsanguination. Then pituitary, adrenal glands (both sides), graft uterine strips (two pieces), left uterine horn, mammary gland (excised with the nipples, three on the lower abdomen, a sample for RNA measurement was approximately 3 mm in diameter) and femur (left side) were excised.
As for the pituitary, adrenal glands (both sides), grafted uterine strip (one piece), left uterine horn and femur, wet weight was measured. The femur bone after wet weight measurement was discarded.

[1] = in comparison with the E2 control group

`CCN(CC)Cc1ccc(OCC[C@H]2CC[C@H]3[C@@H]4[C@H](C)Cc5cc(O)ccc5[C@H]4CC[C@]23C)c(OC)c1` [SR16234, (7α)-21-[4-[(diethylamino)methyl]-2-methoxyphenoxy]-7-methyl-19-norpregna-1,3,5(10)-triene-3-ol] was tested, and the “Expression level PEDF” value (PEDF; 0.1 mg/kg) was 6.44 ± 1.56 ng, the “Expression level PEDF” value (PEDF; 1 mg/kg) was 5.93 ± 3.01 ng and the “Effect on the gene expression of PEDF (in words)” value (PEDF; in comparison with the E2 control group, FIG. 2) was “increase trend”. The “Expression level MCP-1” value (MCP-1; 0.1 mg/kg) was 41.95 ± 21.68 ng, the “Expression level MCP-1” value (MCP-1; 0.3 mg/kg) was 28.30 ± 10.93 ng and the “Expression level MCP-1” value (MCP-1; 1 mg/kg) was 26.70 ± 18.30 ng. The “Expression level Erb” value (Erb; 0.1 mg/kg) was 4.05 ± 1.88 ng, the “Expression level Erb” value (Erb; 0.3 mg/kg) was 3.05 ± 1.02 ng and the “Expression level Erb” value (Erb; 1 mg/kg) was 2.08 ± 1.51 ng. For the same compound, the “Effect on the estrogen receptor gene expression of Erb (in words)” value (Erb; [1]) was “not observed”, the “Expression level IL-6” value (IL-6; 0.1 mg/kg) was 9.77 ± 9.78 ng and the “Expression level IL-6” value (IL-6; 1 mg/kg) was 6.74 ± 4.96 ng. For the same compound, the “Effect on the gene expression of IL-6 (in words)” value (IL-6; in comparison with the E2 control group, FIG. 3) was “dose-dependently inhibited”, the “Expression level PR” value (PR; 0.1 mg/kg) was 94.6 ± 37.7 ng and the “Expression level PR” value (PR; 0.3 mg/kg) was 176.2 ± 81.1 ng. The “Expression level PR” value (PR; 1 mg/kg) was 127.8 ± 89.1 ng, the “Effect on gene expression of PR (in words)” value (PR; [1]) was “slight increase trend” and the “Expression level VEGF” value (VEGF; 0.1 mg/kg) was 1.44 ± 0.43 ng. For the same compound, the “Expression level VEGF” value (VEGF; 0.3 mg/kg) was 1.65 ± 0.40 ng, the “Expression level VEGF” value (VEGF; 1 mg/kg) was 1.33 ± 0.57 ng and the “Effect on the gene expression of VEGF (in words)” value (VEGF; [1]) was “No effect”. For the same compound, the “Wet weight of pituitary” value (rat endometriosis model; 0.1 mg/kg p.o. 28 days) was 0.0226 g, the “Wet weight of adrenal gland (right)” value (rat endometriosis model; 0.1 mg/kg p.o. 28 days) was 0.0400 g and the “Wet weight of adrenal gland (left)” value (rat endometriosis model; 0.1 mg/kg p.o. 28 days) was 0.0438 g. The “Wet weight of adrenal glands (the sum of the left and right)” value (from here on “Wet weight of adrenal glands”) (rat endometriosis model; 0.1 mg/kg p.o. 28 days) was 0.0838 g, the “Wet weight of left uterine horn” value (rat endometriosis model; 0.1 mg/kg p.o. 28 days) was 0.1261 g and the “Wet weight of femur (left)” value (rat endometriosis model; 0.1 mg/kg p.o. 28 days) was 0.7597 g. For the same compound, the “Weight trend in comparison with the vehicle control group after the Day 14 (in words)” value (rat endometriosis model; 0.3 mg/kg and 0.1 mg/kg administered group) was “very mild weight suppression trend”, the “Wet weight of pituitary” value (rat endometriosis model; 0.3 mg/kg p.o. 28 days) was 0.0187 g and the “Wet weight of adrenal gland (right)” value (rat endometriosis model; 0.3 mg/kg p.o. 28 days) was 0.0381 g. For the same compound, the “Wet weight of adrenal gland (left)” value (rat endometriosis model; 0.3 mg/kg p.o. 28 days) was 0.0398 g, the “Wet weight of adrenal glands” value (rat endometriosis model; 0.3 mg/kg p.o. 28 days) was 0.0779 g and the “Wet weight of left uterine horn” value (rat endometriosis model; 0.3 mg/kg p.o. 28 days) was 0.1119 g. The “Wet weight of femur (left)” value (rat endometriosis model; 0.3 mg/kg p.o. 28 days) was 0.7598 g, the “Wet weight of pituitary” value (rat endometriosis model; 1.0 mg/kg p.o. 28 days) was 0.0174 g and the “Wet weight of adrenal gland (right)” value (rat endometriosis model; 1.0 mg/kg p.o. 28 days) was 0.0357 g. The “Wet weight of adrenal gland (left)” value (rat endometriosis model; 1.0 mg/kg p.o. 28 days) was 0.0375 g, the “Wet weight of adrenal glands” value (rat endometriosis model; 1.0 mg/kg p.o. 28 days) was 0.0732 g and the “Wet weight of left uterine horn” value (rat endometriosis model; 1.0 mg/kg p.o. 28 days) was 0.1016 g. For the same compound, the “Wet weight of femur (left)” value (rat endometriosis model; 1.0 mg/kg p.o. 28 days) was 0.7301 g and the “Wet weight of organs in comparison with the vehicle control group (in words)” value (rat endometriosis model; SR16234 administered groups, 0.1, 0.3 and 1.0 mg/kg) was “decreasing trend associated with the dose increase”.
